Experiment [1] deals with MT4. The experiment in a line: Inhibitory activity against 100I strain and 103N strain of HIV-I in MT-4 cell was determined. Conditions: Homo sapiens. Format: functional, cell-based.
In experiment [2] the test system is Human immunodeficiency virus 1. The experiment is described as follows: Inhibitory activity against 100I strain of HIV-I in MT-4 cell was determined. Conditions: Human immunodeficiency virus 1, MT4. Format: functional, organism-based.
Experiment [3] has as its system MT4. The experiment in a line: Inhibitory activity against 103N strain and 181C strain of HIV-I in MT-4 cell was determined. The conditions noted are these: Homo sapiens. Type of experiment: functional, cell-based.
Experiment [4] concerns Human immunodeficiency virus 1. The experiment in a line: Inhibitory activity against 103N strain of HIV-I in MT-4 cell was determined. Type of experiment: functional, organism-based. Conditions: Human immunodeficiency virus 1, MT4.
For experiment [5], the system named is Human immunodeficiency virus 1. The experiment is described as follows: Inhibitory activity against 181C strain of HIV-I in MT-4 cell was determined. Format: functional, organism-based. The conditions noted are these: Human immunodeficiency virus 1, MT4.
Experiment [6] relates to Human immunodeficiency virus 1. The experiment is described as follows: Inhibitory activity against 188L strain of HIV-1 in MT-4 cell was determined. Conditions: Human immunodeficiency virus 1, MT4. Type of experiment: functional, organism-based.
In experiment [7] the test system is Human immunodeficiency virus 1. The experiment is described as follows: Inhibitory activity against LAI strain of HIV-I in MT-4 cell was determined. Type of experiment: functional, organism-based. Conditions: Human immunodeficiency virus 1, MT4.
In experiment [8] the test system is MT4. The experiment in a line: Inhibitory activity against LAI strain of HIV-I in MT-4 cell was determined; Not determined. Format: functional, cell-based. Conditions: Homo sapiens.

`Cc1cc(C#N)cc(C)c1Oc1ncnc(Nc2ccc(C#N)cc2)n1`: the IC50 (as a rule, the concentration that gives 50% inhibition) stood at 3.98 µM in experiment [1]; 1 µM in experiment [2]; 0.398 µM in experiment [3]; 0.02 µM in experiment [4]; 0.501 µM in experiment [5]; 0.251 µM in experiment [6]. The compound also gave an IC50 in experiment [7] of 0.004 µM.

With `Cc1cc(C)c(Cc2nc(N)nc(Nc3ccc(C#N)cc3)n2)c(C)c1`, the IC50 in experiment [2] is 0.082 µM; in experiment [4], 0.003 µM; in experiment [5] it was 0.015 µM; in experiment [6], 0.045 µM; in experiment [7], 0.0008 µM.

`Cc1cc(C#N)cc(C)c1Nc1ncnc(Nc2ccc(C#N)cc2)n1`: the IC50 in experiment [1] was determined as 2.51 µM; in experiment [2], 0.251 µM; in experiment [3], 0.126 µM; in experiment [4], 0.008 µM; in experiment [5], 0.05 µM; in experiment [6], 0.05 µM. In experiment [7], the IC50 is 0.001 µM.

For the compound `CCCONc1nc(Cc2c(Cl)cccc2Cl)nc(Nc2ccc(C#N)cc2)n1`, in experiment [8], the midpoint of inhibition, the IC50, lay at 100 µM.

Turning to `Cc1cc(Br)cc(C)c1Nc1ncnc(Nc2ccc(C#N)cc2)n1`, the IC50 is 3.16 µM in experiment [1]; 0.079 µM in experiment [2]; 0.126 µM in experiment [3]; 0.006 µM in experiment [4]; 0.016 µM in experiment [5]; 0.063 µM in experiment [6]. In addition, half-maximal inhibition in experiment [7] (IC50) was put at 0.0006 µM.

As to `Cc1cc(C)c(C)c(Cc2nc(N)nc(Nc3ccc(C#N)cc3)n2)c1C`, the IC50 in experiment [2] came out at 6.7 µM; in experiment [4] it was 0.085 µM; in experiment [5], 1.19 µM; in experiment [6], 0.367 µM; in experiment [7], 0.0046 µM.

With `Cc1cc(C)c(Sc2ncnc(Nc3ccc(C#N)cc3)n2)c(C)c1`, the IC50 is more than 10 µM in experiment [1]; 0.032 µM in experiment [2]; 0.003 µM in experiment [4]; 0.013 µM in experiment [5]; 0.02 µM in experiment [6]; 0.002 µM in experiment [7].

Compound `CCONc1nc(Cc2c(Cl)cccc2Cl)nc(Nc2ccc(C#N)cc2)n1` showed an IC50 in experiment [8] of 0.0246 µM.

With `Cc1cc(C)c(Oc2ncnc(Nc3ccc(C#N)cc3)n2)c(C)c1`, the concentration for half-maximal inhibition (IC50) in experiment [1] was more than 10 µM; in experiment [2] it was 0.02 µM; in experiment [4] it was 0.003 µM; in experiment [5], 0.02 µM; in experiment [6], 0.063 µM; in experiment [7], 0.0006 µM.

The record behind these values is ChEMBL document CHEMBL1133922, “Evolution of anti-HIV drug candidates. Part 2: Diaryltriazine (DATA) analogues” (Bioorg Med Chem Lett, 2001).
